The values below come from US8759366B2, “Aminopyrimidines as SYK inhibitors” (Merck Sharp & Dohme Corp., priority 2009, dated 2014).

Counter-ions that a name gives are not always drawn.

For the experiment, the target named is rhSYK (Homo sapiens (Human), UniProt P43405). Particulars: read-out: rhSYK activity.
For the compound `Cc1cc(Nc2nccc(C(F)(F)F)n2)cc(-c2cnc(C3(O)CCC(C4(N)CC4)CC3)s2)c1` (stereo not drawn) [Example 4C-19], the IC50 was < 100 nM.
On to `Cc1cc(Nc2nccc(C(F)(F)F)n2)cc(-c2cnc(C3(O)C4CC5C(C4C(=O)O)C53)s2)c1` (stereo not drawn) [Example 4B-36], for which the IC50 is < 100 nM.
The result for `Cc1cc(Nc2nccc(C(F)(F)F)n2)cc(-c2cnc(C3(O)CCNCC3)s2)c1` [Example 46, 4-[5-(3-methyl-5-{[4-(trifluoromethyl)pyrimidin-2-yl]amino}phenyl)-1,3-thiazol-2-yl]piperidin-4-ol] reads < 100 nM; that for `Cc1cc(Nc2nccc(C(F)(F)F)n2)cc(-c2cnc(C3(O)CCOCC3)s2)c1` [Example 4B-13], < 100 nM; that for `OC(c1ncc(-c2cccc(Nc3nccc(C(F)(F)F)n3)c2)s1)(C(F)(F)F)C(F)(F)F` [Example 4A-3], < 100 nM.
The result for `COC(=O)C1CCC(O)(c2ncc(-c3cc(C)cc(Nc4nccc(C)n4)c3)s2)CC1C(C)C` (stereo not drawn) [Example 4C-17] reads < 100 nM; that for `Cc1cc(Nc2nccc(C(F)(F)F)n2)cc(-c2cnc(C3(O)CCN(C(=O)CCCC(=O)O)CC3)s2)c1` [4D-13], < 100 nM.
The result for `Cc1cc(Nc2nccc(C(F)(F)F)n2)cc(-c2cnc(C3(O)CCN(c4cccc(F)c4)CC3)s2)c1` [4D-10] reads 100 to 1000 nM; that for `OC(c1ncc(-c2cccc(Nc3nccc(C(F)(F)F)n3)c2)s1)(C1CC1)C(F)(F)F` (stereo not drawn) [Example 12, 1-Cyclopropyl-2,2,2-trifluoro-1-[5-(3-{[4-(trifluoromethyl)pyrimidin-2-yl]amino}phenyl)-1,3-thiazol-2-yl]ethanol], < 100 nM.
On to `Cc1cc(Nc2nccc(C(F)(F)F)n2)cc(-c2cnc(C3(O)CCN(C(N)=O)CC3)s2)c1` [Example 47, 4-hydroxy-4-[5-(3-methyl-5-{[4-(trifluoromethyl)pyrimidin-2-yl]amino}phenyl)-1,3-thiazol-2-yl]piperidine-1-carboxamide], for which the IC50 was < 100 nM.
`Cc1cc(Nc2nccc(C(F)(F)F)n2)cc(-c2cnc(C(O)CCc3c[nH]cn3)s2)c1` (stereo not drawn) [Example 4A-40, 3-(1H-imidazol-4-yl)-1-[5-(3-methyl-5-{[4-(trifluoromethyl)pyrimidin-2-yl]amino}phenyl)-1,3-thiazol-2-yl]propan-1-ol]: the IC50 was < 100 nM.
The result for `CC(=O)Nc1cc(Nc2nccc(C(F)(F)F)n2)cc(-c2cnc(C3(O)CCC3)s2)c1` [Example 16, N-(3-[2-(1-hydroxycyclobutyl)-1,3-thiazol-5-yl]-5-{[4-(trifluoromethyl)pyrimidin-2-yl]amino}phenyl)acetamide] reads < 100 nM; that for `Cc1cc(Nc2ncc(Cl)cn2)cc(-c2cncs2)c1` [Intermediate 48, 5-Chloro-N-[3-methyl-5-(1,3-thiazol-5-yl)phenyl]pyrimidin-2-amine], 100 to 1000 nM.
The result for `Cc1cc(Nc2nccc(C)n2)cc(-c2cnc(C3(O)CCC(N)(C(=O)O)CC3)s2)c1` (stereo not drawn) [Example 4C-10] reads < 100 nM.
As to `Cc1cc(Nc2nccc(C(F)(F)F)n2)cc(-c2cnc(C(C)(O)c3ccc(C(C)(C)O)cc3)s2)c1` (stereo not drawn) [Example 9-1], the IC50 was 100 to 1000 nM.
As for `Cc1cc(Nc2nccc(C(F)(F)F)n2)cc(-c2cnc(C3(O)CCCC(=O)C3(C)C)s2)c1` (stereo not drawn) [Example 8B-1], the figure is < 100 nM; as for `OC1(c2ncc(-c3cc(Nc4nccc(C(F)(F)F)n4)cc(C(F)F)c3)s2)CCC1` [Example 28, 1-{5-[3-(difluoromethyl)-5-{[4-(trifluoromethyl)pyrimidin-2-yl]amino}phenyl]-1,3-thiazol-2-yl}cyclobutanol], < 100 nM; as for `CCOC(=O)C1CCC(O)(c2ncc(-c3cc(C)cc(Nc4nccc(C)n4)c3)s2)CC1c1ccc(F)cc1` (stereo not drawn) [Example 4C-28], 100 to 1000 nM.
On to `OC1(c2ncc(-c3cc(Nc4nccc(C(F)(F)F)n4)cc(C(F)(F)F)c3)s2)CCC1` [Example 2, 1-{5-[3-(trifluoromethyl)-5-{[4-(trifluoromethyl)pyrimidin-2-yl]amino}phenyl]-1,3-thiazol-2-yl}cyclobutanol], for which the IC50 lay within 100 to 1000 nM.
As for `OC1(c2ncc(-c3cc(Cl)cc(Nc4nccc(C(F)(F)F)n4)c3)s2)CCC1` [Example 3, 1-[5-(3-chloro-5-{[4-(trifluoromethyl)pyrimidin-2-yl]amino}phenyl)-1,3-thiazol-2-yl]cyclobutanol], the figure is 100 to 1000 nM; as for `Cc1cc(Nc2nccc(C(F)(F)F)n2)cc(-c2cnc(C3CCC3)s2)c1` [13-1], 100 to 1000 nM.
As for `CCNC(=O)Nc1cc(Nc2nccc(C(F)(F)F)n2)cc(-c2cnc(C3CCC(C(N)=O)CC3)s2)c1` (single isomer, unassigned) [Example 20(2), 4-[5-(3-[(ethylcarbamoyl)amino]-5-{[4-(trifluoromethyl)pyrimidin-2-yl]amino}phenyl)-1,3-thiazol-2-yl]cyclohexanecarboxamide], the figure is < 100 nM; as for `Cc1cc(Nc2nccc(C(F)(F)F)n2)cc(-c2cnc(C3(C)OC(=O)CC3(C)C)s2)c1` (stereo not drawn) [Example 4B-61], < 100 nM.
As for `Cc1cc(Nc2nccc(C(F)(F)F)n2)cc(-c2cnc([C@]3(F)CC[C@@H](C(=O)O)CC3)s2)c1` [Example 26, cis-4-Fluoro-4-[5-(3-methyl-5-{[4-(trifluoromethyl)pyrimidin-2-yl]amino}phenyl)-1,3-thiazol-2-yl]cyclohexanecarboxylic acid], the figure is < 100 nM; as for `Cc1cc(Nc2nccc(C(F)(F)F)n2)cc(-c2cnc(C3(O)C4CC5CC3CC(O)(C5)C4)s2)c1` (stereo not drawn) [Example 4B-42], < 100 nM; as for `CC(C)N1CCC(O)(c2ncc(-c3cccc(Nc4nccc(C(F)(F)F)n4)c3)s2)CC1` [4D-5], 100 to 1000 nM.
In the case of `CC1(C)CC(O)(c2ncc(-c3cccc(Nc4nccc(C(F)(F)F)n4)c3)s2)CC(C)(C)S1` [Example 4B-8], the IC50 was 1000 to 10000 nM.
As to `Cc1cc(Nc2nccc(C)n2)cc(-c2cnc(C3(O)CCC(C(=O)O)[C@@H]4CCCC[C@H]43)s2)c1` (stereo partly drawn) [Example 4B-21], the IC50 was < 100 nM.
Consider `Cc1cc(Nc2nccc(C(F)(F)F)n2)cc(-c2cnc(C3(C(N)=O)CCC(N)CC3)s2)c1` (stereo not drawn) [molecule A, cis-4-amino-1-[5-(3-methyl-5-{[4-(trifluoromethyl)pyrimidin-2-yl]amino}phenyl)-1,3-thiazol-2-yl]cyclohexanecarboxamide], for which the IC50 is < 100 nM.
As for `Cc1cc(Nc2nccc(C(F)(F)F)n2)cc(-c2cnc(C3(O)CCN(c4ccc(F)cc4)CC3)s2)c1` [4D-12], the figure is < 100 nM; as for `CC(=O)N1CCC(O)(c2ncc(-c3cc(C)cc(Nc4nccc(C(F)(F)F)n4)c3)s2)CC1` [Example 51, 1-(4-hydroxy-4-[5-(3-methyl-5-{[4-(trifluoromethyl)pyrimidin-2-yl]amino}phenyl)-1,3-thiazol-2-yl]piperidin-1-yl)ethanone], < 100 nM.
As for `Cc1cc(Nc2nccc(C(F)(F)F)n2)cc(-c2cnc([C@]3(O)CC[C@@H](c4noc(=O)[nH]4)CC3)s2)c1` [Example 39, 3-{cis-4-Hydroxy-4-[5-(3-methyl-5-{[4-(trifluoromethyl)pyrimidin-2-yl]amino}phenyl)-1,3-thiazol-2-yl]cyclohexyl}-1,2,4-oxadiazol-5(4H)-one], the figure is < 100 nM; as for `CCOC(=O)C1CCC(O)(c2ncc(-c3cc(C)cc(Nc4nccc(C(F)(F)F)n4)c3)s2)CC1` (mixture of isomers) [Example 32, ethyl 4-hydroxy-4-[5-(3-methyl-5-{[4-(trifluoromethyl)pyrimidin-2-yl]amino}phenyl)-1,3-thiazol-2-yl]cyclohexanecarboxylate], < 100 nM.
The result for `CNC(=O)N1CCC(O)(c2ncc(-c3cc(C)cc(Nc4nccc(C(F)(F)F)n4)c3)s2)CC1` [Example 52, 4-hydroxy-N-methyl-4-[5-(3-methyl-5-{[4-(trifluoromethyl)pyrimidin-2-yl]amino}phenyl)-1,3-thiazol-2-yl]piperidine-1-carboxamide] reads < 100 nM.
On to `Cc1cc(Nc2nccc(C(C)C)n2)cc(-c2cnc(C3(O)CCC3)s2)c1` [Example 56, 1-[5-(3-methyl-5-{[4-(propan-2-yl)pyrimidin-2-yl]amino}phenyl)-1,3-thiazol-2-yl]cyclobutanol HCl salt], for which the IC50 is < 100 nM.
As for `Cc1cc(Nc2nccc(C(F)(F)F)n2)cc(-c2cnc(C(O)C(F)(F)F)s2)c1` (single isomer, unassigned) [Example 6-3], the IC50 is < 100 nM.
The result for `Cc1cc(Nc2nccc(C(F)(F)F)n2)cc(-c2cnc(C3(O)CCN(S(=O)(=O)NC(=O)OC(C)(C)C)CC3)s2)c1` [Example 48, tert-butyl({4-hydroxy-4-[5-(3-methyl-5-{[4-(trifluoromethyl)pyrimidin-2-yl]amino}phenyl)-1,3-thiazol-2-yl]piperidin-1-yl}sulfonyl)carbamate] reads < 100 nM; that for `OCCC(O)(CCO)c1ncc(-c2cccc(Nc3nccc(C(F)(F)F)n3)c2)s1` [Example 5, 3-[5-(3-{[4-(trifluoromethyl)pyrimidin-2-yl]amino}phenyl)-1,3-thiazol-2-yl]pentane-1,3,5-triol], 100 to 1000 nM; that for `Fc1ccc(Nc2nccc(C(F)(F)F)n2)cc1Br` [N-(3-bromo-4-fluorophenyl)-4-(trifluoromethyl)pyrimidin-2-amine], 1000 to 10000 nM.
As for `Cc1cc(Nc2nccc(C(F)(F)F)n2)cc(-c2cnc(C3(NS(N)(=O)=O)COC3)s2)c1` [Example 63, N-{3-[5-(3-methyl-5-{[4-(trifluoromethyl)pyrimidin-2-yl]amino}phenyl)-1,3-thiazol-2-yl]oxetan-3-yl}sulfuric diamide], the figure is < 100 nM.
As for `O=C(Nc1cc(Nc2nccc(C(F)(F)F)n2)cc(-c2cnc(C3(O)CCC3)s2)c1)NC1CCCC1` [Example 19, 1-cyclopentyl-3-(3-[2-(1-hydroxycyclobutyl)-1,3-thiazol-5-yl]-5-{[4-(trifluoromethyl)pyrimidin-2-yl]amino}phenyl)urea], the figure is < 100 nM; as for `Cc1cc(Nc2nccc(C(F)(F)F)n2)cc(-c2cnc(C3(O)CCC4(CC3)OCCO4)s2)c1` [Example 4B-15, 8-[5-(3-methyl-5-{[4-(trifluoromethyl)pyrimidin-2-yl]amino}phenyl)-1,3-thiazol-2-yl]-1,4-dioxaspiro[4.5]decan-8-ol], < 100 nM.
